# Data taken from patent publication US4241051A, “Calcitonin” (priority 1977, dated 1980).
# Tested on: bPTH-stimulated resorption
# Experiment: Calcitonin ear drops in 45Ca-labelled guinea pigs; 45Ca release from explanted ossicles after bPTH stimulation
# Type: in vivo
# Conditions: for antagonism by calcitonin of the bPTH-stimulated resorption (45Ca release into bathing medium): 40 hour reading
# Procedure: A large dose of radio calcium (400 μCi of ^45 Ca) is administered intravenously to each of eight guinea pigs to label their skeletons. On the third, fourth and fifth days after administration of the radiocalcium each of the guinea pigs receives ear drops containing a solution of synthetic salmon calcitonin (Armour Pharmaceutical Co.) dissolved in dimethylsulphoxide (0.1 ml of solution containing 25μg of calcitonin). Four of the animals receive calcitonin to the right ear and four to the left ear, 0.1 ml of dimethylsulphoxide being given to the other ear in each case as a control.
# One hour before sacrifice on the fifth day three animals from each group of four are treated intravenously with 500 MRC units of bovine parathyroid hormone (bPTH; 2000U/mg) in diluted plasma to stimulate bone resorption, the remaining animal in each group receiving diluted plasma only as a control. After sacrifice in alternation by ether anaesthesia, the ossicles of each ear of each animal are removed by the opening the temporal bone from its lower surface, remote from the external ear to which calcitonin has been applied. They are explanted onto a filter disc (Millipore HA) in a tissue culture dish containing 1 ml of the Fitton-Jackson modification of BGJ (Gibco-Biocult Ltd) with added ascorbic acid (150 μg/ml), streptomycin (5 mg/100 ml) and penicillin (5000U/100 ml), gassed with 93% air, 7% carbon dioxide. The bathing medium is withdrawn from each dish after 20, 40 and 60 hours incubation in an airtight container at 37° C. and is replaced with freshly gassed medium. After addition to 4 ml aliquots of scintillator (Packard Instagel) the samples are subjected to liquid scintillation spectrometry (Packard 2425 set to the ^14 C channel).
# In a variation of the procedure described above, the calcitonin is administered in 0.1% w/v aqueous sodium dioctyl sulphosuccinate rather than in dimethyl sulphoxide in two separate experiments, the whole of the ossicles being explanted as described above in the first case and only the stapes being explanted in the second. In these two experiments some variation is made in the radiolabelling procedure, only 200 μCi of ^45 Ca being given in the first case but intraperitoneally rather than intravenously to facilitate the labelling of bone and 400 μCi of ^45 Ca being given in the second case, also intraperitoneally, but with omission of the methyl red from the BGJ culture medium as this causes considerable quenching.
# A group of twenty-four guinea pigs is treated as described in Example 1 to effect labelling of their skeletons, a dose of 400 μCi of ^45 Ca being given intraperitoneally. The animals are then divided into three groups which are treated as described in Example 1 with 0.1 ml of a solution of concentration 27.8 μg/ml, 83.3 μg/ml or 250 μg/ml of synthetic salmon calcitonin in 0.1% w/v aqueous sodium dioctyl sulphosuccinate. The subsequent treatment of the animals follows that of Example 1, the methyl red being omitted from the BGJ culture medium.
substance,measurement,setting,value
synthetic salmon calcitonin,level of effect on 45Ca release from explanted ossicles,"Example 2, 0.1 ml ear drops of 27.8 μg/ml in 0.1% w/v aqueous sodium dioctyl sulphosuccinate",little effect
same,level of effect on 45Ca release from explanted ossicles,"Example 2, 0.1 ml ear drops of 83.3 μg/ml in 0.1% w/v aqueous sodium dioctyl sulphosuccinate, compared with 250 μg/ml",very similar level of effect
same,level of effect on 45Ca release from explanted ossicles,"Example 2, 0.1 ml ear drops of 250 μg/ml in 0.1% w/v aqueous sodium dioctyl sulphosuccinate, compared with 83.3 μg/ml",very similar level of effect
same,duration of effect after application in vivo,"Example 2, bathing medium examined after 20, 40 and 60 hours of culture",effect of extended duration
same,antagonism by calcitonin of the bPTH-stimulated resorption (45Ca release into bathing medium),"ear drops 0.1 ml with 25 μg calcitonin in dimethylsulphoxide, days 3-5, whole of the ossicles explanted, p<0.01",highly significant
same,antagonism by calcitonin of the bPTH-stimulated resorption (45Ca release into bathing medium),"ear drops with calcitonin in 0.1% w/v aqueous sodium dioctyl sulphosuccinate, only the stapes explanted, p<0.005",highly significant
same,antagonism by calcitonin of the bPTH-stimulated resorption (45Ca release into bathing medium),"ear drops with calcitonin in 0.1% w/v aqueous sodium dioctyl sulphosuccinate, whole of the ossicles explanted, p<0.01",highly significant
same,concentration level generally required to achieve an adequate effect,"topical composition, calcitonin with a potency of about 4500 International units per mg",greater than 25 micrograms per ml
